In the NIST ThermoML archive (doi:10.1021/je500380x):
± gives the expanded uncertainty stated by the source.

How the values were obtained:
[1] = 298.15 K, 101.33 kPa, Liquid; for viscosity: Falling or rolling sphere viscometry; for mass density: Vibrating tube method
[2] = mn = molality of the nth substance listed, in mol/kg; conditions: 100 kPa, Liquid, m2 = 0; for viscosity: Falling or rolling sphere viscometry; for mass density: Vibrating tube method

Row | SMILES | viscosity [1] [mPa·s] | mass density [1] [kg/m3] | viscosity ([2]; 293.15 K) [mPa·s] | mass density ([2]; 293.15 K) [kg/m3] | viscosity ([2]; 298.15 K) [mPa·s] | mass density ([2]; 298.15 K) [kg/m3] | viscosity ([2]; 303.15 K) [mPa·s] | mass density ([2]; 303.15 K) [kg/m3] | viscosity ([2]; 308.15 K) [mPa·s] | mass density ([2]; 308.15 K) [kg/m3] | viscosity ([2]; 313.15 K) [mPa·s] | mass density ([2]; 313.15 K) [kg/m3] | viscosity ([2]; 318.15 K) [mPa·s] | mass density ([2]; 318.15 K) [kg/m3] | viscosity ([2]; 323.15 K) [mPa·s] | mass density ([2]; 323.15 K) [kg/m3]
1 | CO [methanol] | 0.559 ± 0.011 | 786.671 ± 0.13 | – | – | – | – | – | – | – | – | – | – | – | – | – | –
2 | O [water] | 0.887 ± 0.012 | – | – | – | – | – | – | – | – | – | – | – | – | – | – | –
3 | O [water] + CCC(=O)OCCN1CCNCC1 | – | – | 0.994 ± 0.012 | – | 0.887 ± 0.011 | – | 0.799 ± 0.01 | – | 0.726 ± 0.009 | 994.07 ± 0.11 | 0.665 ± 0.008 | – | 0.614 ± 0.008 | – | 0.567 ± 0.007 | –

Now from value to compound:

Row | viscosity [1] [mPa·s] | mass density [1] [kg/m3] | viscosity ([2]; 293.15 K) [mPa·s] | mass density ([2]; 293.15 K) [kg/m3] | viscosity ([2]; 298.15 K) [mPa·s] | mass density ([2]; 298.15 K) [kg/m3] | viscosity ([2]; 303.15 K) [mPa·s] | mass density ([2]; 303.15 K) [kg/m3] | viscosity ([2]; 308.15 K) [mPa·s] | mass density ([2]; 308.15 K) [kg/m3] | viscosity ([2]; 313.15 K) [mPa·s] | mass density ([2]; 313.15 K) [kg/m3] | viscosity ([2]; 318.15 K) [mPa·s] | mass density ([2]; 318.15 K) [kg/m3] | viscosity ([2]; 323.15 K) [mPa·s] | mass density ([2]; 323.15 K) [kg/m3] | SMILES
4 | 1.083 ± 0.013 | 785.339 ± 0.13 | – | – | – | – | – | – | – | – | – | – | – | – | – | – | CCO [ethanol]
5 | – | – | 1.189 ± 0.015 | 789.64 ± 0.15 | 1.083 ± 0.013 | 785.34 ± 0.15 | 0.989 ± 0.012 | 781.03 ± 0.15 | 0.905 ± 0.011 | 776.68 ± 0.16 | 0.831 ± 0.01 | 772.29 ± 0.16 | 0.765 ± 0.009 | 767.86 ± 0.16 | 0.706 ± 0.009 | 763.38 ± 0.16 | CCO [ethanol] + CCC(=O)OCCN1CCNCC1
6 | – | – | 0.595 ± 0.007 | 791.38 ± 0.15 | 0.559 ± 0.007 | 786.67 ± 0.15 | 0.527 ± 0.007 | 781.95 ± 0.15 | 0.498 ± 0.006 | 777.2 ± 0.16 | 0.471 ± 0.006 | 772.43 ± 0.16 | 0.448 ± 0.006 | 767.62 ± 0.16 | 0.428 ± 0.005 | 762.77 ± 0.16 | CO [methanol] + CCC(=O)OCCN1CCNCC1
